Reference: PMC11887843 (Science Advances, 2024)
Where two headings read alike, the source gives them in different places.

Tests used:
[1] = target: T1, caspase-11 (Mus musculus, UniProt P70343); assay: microscale thermophoresis; assay type: binding
T1 sequence (P70343 1-80): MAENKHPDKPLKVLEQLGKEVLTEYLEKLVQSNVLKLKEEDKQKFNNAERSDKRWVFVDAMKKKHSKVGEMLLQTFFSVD

[2] = target: T2, AcCARD (uncharacterized CARD-containing protein) (Amphilophus citrinellus, UniProt A0A3Q0SFM2); assay: limited trypsin digestion and blue native PAGE in […] lysates; assay type: cell-based
T2 sequence (A0A3Q0SFM2 1-92): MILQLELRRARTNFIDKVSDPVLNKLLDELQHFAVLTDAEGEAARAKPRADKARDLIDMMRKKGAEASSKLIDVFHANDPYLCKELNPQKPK

[3] = target: T1, caspase-11; assay: microscale thermophoresis; assay type: binding; remark: listed apart in the source

Compound	Kd [1]	limited trypsin digestion and blue native PAGE in 293T lysates [2]	Kd [3]
CCCCCCCCCCCCCCCC(=O)OC[C@H](COP(=O)([O-])OCC[N+](C)(C)C)OC(=O)CCCC(=O)O [PGPC]	~15 µM	we found that AcCARD binds PGPC in both native PAGE and limited trypsin digestion assays	–
CCCCCCCCCCCCCCCC(=O)OC[C@@H](O)COP(=O)([O-])OCC[N+](C)(C)C [16:0 LysoPC, 1-palmitoyl-2-hydroxy-sn-glycero-3-phosphocholine]	–	–	~10 µM
